Measurements from ChEMBL document CHEMBL5465560, “Selectivity Literature for EUbOPEN Chemogenomic Library” (2024).

How the values were obtained:
[1] = molecular target: Serine/threonine-protein kinase Nek7 (Homo sapiens) (UniProt Q8TDX7); assay: Selectivity interaction (Ambit KINOMEscan and KiNATiv profiling in Jurkat cells) EUB0000090b NEK7; assay type: cell-based; conditions: at 1 µM
[2] = molecular target: T1, Aurora kinase C (Homo sapiens) (UniProt Q9UQB9); assay: Selectivity interaction (ActivX KiNativ screen (kinase selectivity in THP-1 cell lysates)) EUB0000639a AURKC; assay type: subcellular; conditions: lysate
T1 sequence (whole entry): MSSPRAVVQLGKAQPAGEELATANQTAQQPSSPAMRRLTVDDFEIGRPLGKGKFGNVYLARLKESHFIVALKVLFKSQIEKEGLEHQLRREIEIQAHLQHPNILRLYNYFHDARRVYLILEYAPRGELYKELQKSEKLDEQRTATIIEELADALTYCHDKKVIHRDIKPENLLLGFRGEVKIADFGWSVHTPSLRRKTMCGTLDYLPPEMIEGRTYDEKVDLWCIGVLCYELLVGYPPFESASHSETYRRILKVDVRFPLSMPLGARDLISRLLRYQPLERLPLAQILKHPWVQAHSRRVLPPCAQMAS

[3] = molecular target: Tyrosine-protein kinase Lyn (Homo sapiens, UniProt P07948); assay: Selectivity interaction (ActivX KiNativ screen (kinase selectivity in THP-1 cell lysates)) EUB0000639a LYN; assay type: subcellular; conditions: lysate, at 0.04 µM
Tyrosine-protein kinase Lyn, sequence (P07948 2-512 limits assumed): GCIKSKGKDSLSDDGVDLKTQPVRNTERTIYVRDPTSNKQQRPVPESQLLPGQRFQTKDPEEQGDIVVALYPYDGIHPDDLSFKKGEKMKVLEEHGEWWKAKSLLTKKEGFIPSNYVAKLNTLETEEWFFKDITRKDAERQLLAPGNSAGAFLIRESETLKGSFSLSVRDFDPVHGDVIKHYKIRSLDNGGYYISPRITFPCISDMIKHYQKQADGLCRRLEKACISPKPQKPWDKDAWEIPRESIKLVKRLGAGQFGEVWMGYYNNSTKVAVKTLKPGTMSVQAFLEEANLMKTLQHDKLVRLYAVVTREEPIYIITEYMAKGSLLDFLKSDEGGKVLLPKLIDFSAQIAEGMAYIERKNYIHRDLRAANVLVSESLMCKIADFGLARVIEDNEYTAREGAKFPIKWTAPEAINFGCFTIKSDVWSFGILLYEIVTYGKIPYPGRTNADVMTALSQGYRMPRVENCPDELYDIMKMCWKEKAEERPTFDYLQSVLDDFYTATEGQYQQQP

[4] = molecular target: Tyrosine-protein kinase SYK (Homo sapiens, UniProt P43405); assay: Selectivity interaction (ActivX KiNativ screen (kinase selectivity in THP-1 cell lysates)) EUB0000639a SYK; assay type: subcellular; conditions: lysate, at 1 µM
[5] = molecular target: Serine/threonine-protein kinase WNK1 (Homo sapiens) (UniProt Q9H4A3); assay: Selectivity interaction (KinomeScan (DiscoverX)) EUB0000695a WNK1; conditions: at 100 nM
[6] = test system: Tyrosine-protein kinase ABL1 (Homo sapiens), P00519 [T315I]; assay: Selectivity interaction (KinomeScan (DiscoverX)) EUB0000045b ABL1; conditions: at 1 µM
[7] = molecular target: T2, Dual specificity mitogen-activated protein kinase kinase 6 (Homo sapiens) (UniProt P52564); assay: Selectivity interaction (KinomeScan (DiscoverX)) EUB0000045b MAP2K6
T2 sequence (whole entry): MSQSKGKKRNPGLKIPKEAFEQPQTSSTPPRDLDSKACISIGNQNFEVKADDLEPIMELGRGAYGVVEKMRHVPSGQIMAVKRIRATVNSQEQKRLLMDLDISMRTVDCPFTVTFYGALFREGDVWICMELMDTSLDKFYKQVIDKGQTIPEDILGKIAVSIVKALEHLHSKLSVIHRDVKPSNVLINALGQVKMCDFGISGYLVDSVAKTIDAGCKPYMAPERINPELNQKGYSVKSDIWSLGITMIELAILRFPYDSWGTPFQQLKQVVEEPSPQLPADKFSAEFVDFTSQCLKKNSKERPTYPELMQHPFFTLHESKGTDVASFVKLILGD

[8] = molecular target: Mitogen-activated protein kinase 14 (Homo sapiens, UniProt Q16539); assay: Selectivity interaction (KinomeScan (DiscoverX)) EUB0000045b MAPK14
Mitogen-activated protein kinase 14, sequence (Q16539 whole entry): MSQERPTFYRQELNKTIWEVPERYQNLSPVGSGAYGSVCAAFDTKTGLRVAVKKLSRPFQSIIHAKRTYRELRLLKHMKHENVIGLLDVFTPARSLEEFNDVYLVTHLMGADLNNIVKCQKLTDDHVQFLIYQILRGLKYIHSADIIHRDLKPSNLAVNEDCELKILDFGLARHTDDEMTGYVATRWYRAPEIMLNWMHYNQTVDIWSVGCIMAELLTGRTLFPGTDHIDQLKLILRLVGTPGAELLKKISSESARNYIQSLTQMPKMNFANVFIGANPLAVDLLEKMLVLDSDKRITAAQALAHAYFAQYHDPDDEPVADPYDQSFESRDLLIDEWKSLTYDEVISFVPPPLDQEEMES

[9] = molecular target: T3, Serine/threonine-protein kinase NLK (Homo sapiens) (UniProt Q9UBE8); assay: Selectivity interaction (KinomeScan (DiscoverX)) EUB0000045b NLK
T3 sequence (whole entry): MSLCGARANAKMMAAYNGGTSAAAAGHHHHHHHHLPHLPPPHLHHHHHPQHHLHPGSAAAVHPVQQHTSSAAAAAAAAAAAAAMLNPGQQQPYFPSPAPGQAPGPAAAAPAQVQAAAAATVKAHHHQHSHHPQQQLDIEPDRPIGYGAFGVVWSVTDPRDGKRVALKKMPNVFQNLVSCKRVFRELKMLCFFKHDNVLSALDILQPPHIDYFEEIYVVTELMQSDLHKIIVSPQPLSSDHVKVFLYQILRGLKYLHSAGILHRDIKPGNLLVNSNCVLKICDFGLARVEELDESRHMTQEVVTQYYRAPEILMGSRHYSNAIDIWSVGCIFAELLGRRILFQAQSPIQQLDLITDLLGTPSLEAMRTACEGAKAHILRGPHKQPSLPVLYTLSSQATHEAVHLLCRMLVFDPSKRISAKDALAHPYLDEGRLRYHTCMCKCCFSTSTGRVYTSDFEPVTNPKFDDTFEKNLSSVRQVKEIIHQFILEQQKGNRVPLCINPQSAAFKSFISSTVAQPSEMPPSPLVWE

[10] = molecular target: Tyrosine-protein kinase ABL1 (Homo sapiens, UniProt P00519); assay: Selectivity interaction (KinomeScan (DiscoverX)) EUB0000655a ABL1; conditions: at 10 µM
[11] = molecular target: Calcium/calmodulin-dependent protein kinase type II subunit alpha (Homo sapiens, UniProt Q9UQM7); assay: Selectivity interaction (KinomeScan (DiscoverX)) EUB0001619a CAMK2A; conditions: at 1 µM
Calcium/calmodulin-dependent protein kinase type II subunit alpha, sequence (Q9UQM7 whole entry): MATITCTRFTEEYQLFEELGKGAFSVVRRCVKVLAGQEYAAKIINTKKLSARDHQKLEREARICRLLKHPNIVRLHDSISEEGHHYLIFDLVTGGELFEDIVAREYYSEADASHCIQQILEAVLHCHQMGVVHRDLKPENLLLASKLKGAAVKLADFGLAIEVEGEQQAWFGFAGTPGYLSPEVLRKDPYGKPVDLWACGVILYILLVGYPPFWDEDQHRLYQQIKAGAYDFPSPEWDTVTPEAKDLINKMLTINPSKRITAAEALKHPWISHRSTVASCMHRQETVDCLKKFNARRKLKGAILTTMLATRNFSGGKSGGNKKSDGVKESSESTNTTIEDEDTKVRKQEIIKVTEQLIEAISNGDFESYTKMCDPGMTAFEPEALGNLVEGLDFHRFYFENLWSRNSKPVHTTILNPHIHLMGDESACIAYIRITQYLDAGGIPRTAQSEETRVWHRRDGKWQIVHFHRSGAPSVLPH

[12] = molecular target: TRAF2 and NCK-interacting protein kinase (Homo sapiens) (UniProt Q9UKE5); assay: Selectivity interaction (KinomeScan (DiscoverX)) EUB0000618a TNIK; conditions: at 10 µM
TRAF2 and NCK-interacting protein kinase (Homo sapiens), sequence (Q9UKE5 whole entry, looked up): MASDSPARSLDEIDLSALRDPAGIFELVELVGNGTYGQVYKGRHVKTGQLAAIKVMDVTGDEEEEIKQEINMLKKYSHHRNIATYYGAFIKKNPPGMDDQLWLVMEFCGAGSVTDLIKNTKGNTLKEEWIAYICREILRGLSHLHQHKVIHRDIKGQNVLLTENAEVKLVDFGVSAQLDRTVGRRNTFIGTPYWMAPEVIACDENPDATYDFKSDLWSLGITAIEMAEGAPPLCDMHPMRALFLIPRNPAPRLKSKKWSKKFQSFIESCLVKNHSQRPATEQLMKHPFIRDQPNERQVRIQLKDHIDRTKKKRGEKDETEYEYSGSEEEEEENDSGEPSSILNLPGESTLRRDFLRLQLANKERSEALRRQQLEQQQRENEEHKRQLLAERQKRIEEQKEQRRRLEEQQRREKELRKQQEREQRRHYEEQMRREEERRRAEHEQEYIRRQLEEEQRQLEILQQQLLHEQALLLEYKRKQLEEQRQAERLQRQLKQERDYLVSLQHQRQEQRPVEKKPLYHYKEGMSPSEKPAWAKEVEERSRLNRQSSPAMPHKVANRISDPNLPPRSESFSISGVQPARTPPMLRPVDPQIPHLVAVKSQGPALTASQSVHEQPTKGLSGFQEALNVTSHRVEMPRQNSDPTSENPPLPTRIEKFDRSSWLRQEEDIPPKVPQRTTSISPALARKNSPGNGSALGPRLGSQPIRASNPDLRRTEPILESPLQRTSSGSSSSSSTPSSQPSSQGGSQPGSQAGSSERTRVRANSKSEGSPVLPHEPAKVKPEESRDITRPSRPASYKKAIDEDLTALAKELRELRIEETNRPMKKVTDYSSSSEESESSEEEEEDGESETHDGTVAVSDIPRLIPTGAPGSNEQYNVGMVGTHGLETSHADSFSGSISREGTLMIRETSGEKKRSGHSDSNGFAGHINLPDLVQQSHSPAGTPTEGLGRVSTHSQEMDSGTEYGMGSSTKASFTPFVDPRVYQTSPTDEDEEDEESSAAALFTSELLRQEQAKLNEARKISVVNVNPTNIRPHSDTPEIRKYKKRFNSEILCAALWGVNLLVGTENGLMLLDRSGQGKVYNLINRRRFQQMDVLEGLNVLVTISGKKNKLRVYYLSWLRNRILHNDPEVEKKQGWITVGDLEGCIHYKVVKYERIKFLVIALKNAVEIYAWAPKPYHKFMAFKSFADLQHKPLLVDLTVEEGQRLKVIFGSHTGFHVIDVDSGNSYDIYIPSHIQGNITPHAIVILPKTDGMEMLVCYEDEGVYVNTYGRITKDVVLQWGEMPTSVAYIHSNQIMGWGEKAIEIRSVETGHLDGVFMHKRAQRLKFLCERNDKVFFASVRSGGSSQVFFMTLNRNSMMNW

[13] = molecular target: Fibroblast growth factor receptor 2 (Homo sapiens) (UniProt P21802); assay: Selectivity interaction (Kinase panel (DSF assay)) EUB0001559a FGFR2
Fibroblast growth factor receptor 2 (Homo sapiens), sequence (P21802 22-821 limits assumed): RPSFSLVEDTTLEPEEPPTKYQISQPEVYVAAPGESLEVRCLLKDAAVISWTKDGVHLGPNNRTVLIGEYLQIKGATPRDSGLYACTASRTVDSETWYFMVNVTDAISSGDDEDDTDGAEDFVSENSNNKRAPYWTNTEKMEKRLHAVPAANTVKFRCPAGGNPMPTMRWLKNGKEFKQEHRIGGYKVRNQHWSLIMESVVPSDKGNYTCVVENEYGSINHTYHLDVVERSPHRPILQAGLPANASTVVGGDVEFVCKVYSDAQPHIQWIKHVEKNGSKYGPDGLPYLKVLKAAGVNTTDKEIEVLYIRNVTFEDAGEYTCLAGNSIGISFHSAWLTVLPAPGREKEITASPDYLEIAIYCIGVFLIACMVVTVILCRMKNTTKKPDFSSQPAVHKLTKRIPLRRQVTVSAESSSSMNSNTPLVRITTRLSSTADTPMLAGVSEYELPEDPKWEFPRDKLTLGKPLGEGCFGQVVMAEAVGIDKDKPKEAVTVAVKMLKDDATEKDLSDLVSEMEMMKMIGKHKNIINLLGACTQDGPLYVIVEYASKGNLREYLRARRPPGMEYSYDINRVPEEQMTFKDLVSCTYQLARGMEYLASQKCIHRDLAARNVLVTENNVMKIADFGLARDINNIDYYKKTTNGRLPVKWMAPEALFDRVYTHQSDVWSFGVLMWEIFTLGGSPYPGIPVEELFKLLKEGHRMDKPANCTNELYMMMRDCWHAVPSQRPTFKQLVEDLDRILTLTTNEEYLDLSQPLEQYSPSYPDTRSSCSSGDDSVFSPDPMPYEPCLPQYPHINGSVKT

[14] = molecular target: T4, Mitogen-activated protein kinase kinase kinase 7 (Homo sapiens) (UniProt O43318); assay: Selectivity interaction (Kinase panel (KiNativ target engagement assay in Jurkat cells)) EUB0001635a MAP3K7; assay type: cell-based; conditions: Selectivity number of off-targets 0.0, Selectivity number of targets 233.0, Source Knowledge https://www.sciencedirect.com/science/article/pii/S2451945619300674?via%3Dihub, at 1 µM
T4 sequence (whole entry): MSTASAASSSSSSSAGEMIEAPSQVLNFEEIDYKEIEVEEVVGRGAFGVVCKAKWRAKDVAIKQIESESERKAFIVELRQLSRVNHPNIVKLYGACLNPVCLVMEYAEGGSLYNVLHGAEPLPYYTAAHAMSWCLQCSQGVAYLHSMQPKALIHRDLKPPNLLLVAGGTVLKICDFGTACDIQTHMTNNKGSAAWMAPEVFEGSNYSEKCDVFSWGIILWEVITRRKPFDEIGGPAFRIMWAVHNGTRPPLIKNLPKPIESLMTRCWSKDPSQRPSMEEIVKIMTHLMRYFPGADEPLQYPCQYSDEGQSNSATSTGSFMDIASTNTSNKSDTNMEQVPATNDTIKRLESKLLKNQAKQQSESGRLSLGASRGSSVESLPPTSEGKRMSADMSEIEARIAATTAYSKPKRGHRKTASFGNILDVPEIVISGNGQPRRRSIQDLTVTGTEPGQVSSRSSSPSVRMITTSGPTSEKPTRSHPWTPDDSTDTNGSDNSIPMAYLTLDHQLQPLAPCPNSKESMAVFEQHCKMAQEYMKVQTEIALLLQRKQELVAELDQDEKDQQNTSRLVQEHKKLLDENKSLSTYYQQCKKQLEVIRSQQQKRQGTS

Serine/threonine-protein kinase Nek7 (Homo sapiens), sequence (Q8TDX7 whole entry, looked up): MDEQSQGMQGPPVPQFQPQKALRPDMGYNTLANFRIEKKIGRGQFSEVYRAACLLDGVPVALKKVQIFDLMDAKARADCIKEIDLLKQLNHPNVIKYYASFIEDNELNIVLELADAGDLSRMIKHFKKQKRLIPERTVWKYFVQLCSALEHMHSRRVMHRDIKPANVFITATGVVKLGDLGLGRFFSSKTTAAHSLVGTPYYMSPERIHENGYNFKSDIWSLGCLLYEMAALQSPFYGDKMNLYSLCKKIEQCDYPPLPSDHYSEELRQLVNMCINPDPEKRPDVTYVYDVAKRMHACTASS

CN(C)C/C=C/C(=O)Nc1ccc(C(=O)N2CCCC(Nc3ncc(Cl)c(-c4c[nH]c5ccccc45)n3)C2)cc1 (stereo unspecified) was tested, and the % of control [1] was 91%.

CC[C@@H]1[C@H](F)C(=O)N[C@@H]1COc1nccc2cc(C(N)=O)c(OC)cc12 [ZIMLOVISERTIB] was tested, and the % of inhibition ([2]; at 0.01 µM) was 4.9%, the % of inhibition ([2]; at 0.04 µM) was -1.3% and the % of inhibition ([2]; at 0.2 µM) was -1%. For the same molecule, the % of inhibition ([2]; at 1 µM) was 20%, the % of inhibition ([2]; at 5 µM) was 64.4% and the % of inhibition [3] was -15.2%. For the same molecule, the % of inhibition [4] was -0.8%.

Cc1cc(F)c(C(=O)Nc2cccc(-c3nncn3C(C)C)n2)cc1-n1cnc(C2CC2)c1 showed a % of control [5] of 100%.

For C=CC(=O)Nc1cc(-n2c(=O)ccc3cnc4ccc(-c5ccc(NS(C)(=O)=O)cc5)cc4c32)ccc1C, the % of control [6] was 87%, the % of control ([7]; at 1 µM) was 100% and the % of control ([7]; at 10 µM) was 70%. It also gave a % of control ([8]; at 1 µM) of 98%, a % of control ([8]; at 10 µM) of 100% and a % of control ([9]; at 1 µM) of 100%. For the same molecule, the % of control ([9]; at 10 µM) was 100%.

CN(C)CCOc1ccc(-c2nc(-c3ccncc3)c(-c3ccc4c(c3)CC/C4=N\O)[nH]2)cc1 was tested, and the % of control [10] was 6%.

N#Cc1cccc(-c2c[nH]c3ncnc(N4CCOCC4)c23)c1 showed a % of control [11] of 79%.

In the case of O[C@H]1CC[C@H](Nc2ncc3nc(Nc4c(F)cc(F)cc4F)n([C@H]4CCOC4)c3n2)CC1, the % of control [12] is reported as 83%.

CN(C(=O)c1cnn2cccnc12)c1cc2c(cc1N1CCOCC1)C(=O)N(C[C@@H](F)C(C)(C)O)C2 showed a dTM [13] of 0.3 K.

Molecule C=CC(=O)Nc1ccc(C(=O)Nc2[nH]nc3c2CN(C(=O)N[C@H](CN(C)C)c2ccccc2)C3(C)C)cc1 has a % of engagement [14] of -4.8%.
